# Key:
# [1] = test system: Ehrlich ascites tumor cells (EATC); experiment: Antitumor activity in mice inoculated i.p. with Ehrlich ascites tumor cells; assay type: in vivo; conditions: for Median T/C ratio / Number of cured mice at 60 days / Number of cured mice at 90 days / Surviving at 60 days (cured mice and mice bearing a solid tumor) / Surviving at 90 days (cured mice and mice bearing a solid tumor): acetate salt i.p.; for Surviving at 10 days / Body weight change (mean, end of 10 days): mouse, in vivo, ip
# Procedure: Male mice of the ICR (Swiss Hsd) strain from Harlan--Sprague Dawley (Indianapolis, Ind.) were injected intraperitoneal with saline containing 2×10^6 Ehrlich ascites tumor cells (EATC) on day 0. […] Treatment began 24 hours later with intraperitoneal injections of saline or inhibitor, either as the acetate salt or as the hydrochloride salt. The inhibitor was dissolved in 40° C. saline and injected at 10 μl/g body weight. In the case of drugs that were difficult to dissolve, e.g. the hydrochlorides, a non-ionic, low toxicity detergent was included to emulsify the drug, making it suitable for injection. Two cages of mice were assigned to each control or experimental group and fed standard lab chow. In almost all cases, the mice were injected daily for a total of 10 doses.
# The 1-tailed Student t-test for unpaired samples was used for statistical analysis.
# The experimental procedure set forth above was again followed with homologs of PDMP made from fatty acids of 10 to 18 carbon atom length. The compounds were not resolved into D- and L-forms but the threo stereomers were used as the hydrochlorides. All samples were emulsified in Myrj 52 (15 mg/kg).
# [2] = target: T1, glucosyltransferase (EATC enzyme) (Mus musculus, UniProt O88693); experiment: Glucosyltransferase assay, microsomes from EATC; assay type: biochemical
# T1 construct: Microsomes from EATC (0.50 mg protein) required 20 μM PDMP to reduce the glucosyltransferase activity in half; endogenous in cells; host or cells: Ehrlich ascites tumor cells (EATC), microsomes
# T1 sequence (O88693 1-394): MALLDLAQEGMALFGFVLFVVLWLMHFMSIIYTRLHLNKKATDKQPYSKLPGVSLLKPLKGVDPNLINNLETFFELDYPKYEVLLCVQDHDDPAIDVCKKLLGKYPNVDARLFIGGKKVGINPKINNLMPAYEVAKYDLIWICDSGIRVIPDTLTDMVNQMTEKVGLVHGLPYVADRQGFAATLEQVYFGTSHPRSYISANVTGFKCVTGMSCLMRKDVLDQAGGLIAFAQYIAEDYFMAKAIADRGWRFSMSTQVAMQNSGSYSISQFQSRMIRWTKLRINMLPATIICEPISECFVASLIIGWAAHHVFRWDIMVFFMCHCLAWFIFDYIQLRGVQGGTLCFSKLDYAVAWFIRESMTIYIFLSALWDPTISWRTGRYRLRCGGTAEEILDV
# Procedure: (§1) Evidence that D-threo-PDMP acts to inhibit GlcCer biosynthesis was provided as follows from assay of glucosyltransferase. Microsomes as source of enzyme were prepared by highspeed centrifugation and stored at -70° C. before use. The incubations were at 37° C. for 30 minutes with microsomes, ATP, liposomal octanoyl sphingosine, UDP-[^3 H]glu, Mg^2+, and dithioerythritol. Microsomes from EATC (0.50 mg protein) required 20 μM PDMP to reduce the glucosyltransferase activity in half. The microsomes from normal liver (72 μg protein) required 5 μM D-threo-PDMP. While the EATC enzyme seems to be less sensitive to the inhibitor, the intraperitoneal concentration of inhibitor is initially very high.
# [3] = target: T2, glucosyltransferase (microsomes from normal liver) (Mus musculus, UniProt O88693); experiment: Glucosyltransferase assay, microsomes from normal liver; assay type: biochemical
# T2 construct: The microsomes from normal liver (72 μg protein) required 5 μM D-threo-PDMP; from tissue; host or cells: normal liver microsomes, ICR Swiss mice
# T2 sequence (O88693 1-394): T1 sequence (O88693 1-394)
# Procedure: as §1
# Our tentative conclusion is that these cells obtain much of their GlcCer from the peritoneum. Thus, the effectiveness of the drug can tentatively be ascribed to a blockage of GlcCer synthesis by both the host and tumor cells.
# [4] = test system: EATC; experiment: Rechallenge of surviving treated mice with EATC; assay type: in vivo
# Source text: Four mice who had survived 63 days post-inoculation were challenged with another 2×10^6 EATC. […] Normal mice of this age, like the younger ones, are readily attacked by EATC. We conclude that the mice have, in effect, been "live-cell vaccinated" with EATC plus PDMP.
# [5] = test system: EATC; experiment: D-threo-PDMP with detergents (Myrj 52 or Pluronic F68) in mice; assay type: in vivo; conditions: for Number of apparently cured mice at 60 days: 8 mice
# Procedure: Male mice of the ICR (Swiss Hsd) strain from Harlan--Sprague Dawley (Indianapolis, Ind.) were injected intraperitoneal with saline containing 2×10^6 Ehrlich ascites tumor cells (EATC) on day 0. Each cage contained 4 or 5 mice which had been weight matched by a computer program for similar means (about 25 g) and similar standard deviations. Treatment began 24 hours later with intraperitoneal injections of saline or inhibitor, either as the acetate salt or as the hydrochloride salt. The inhibitor was dissolved in 40° C. saline and injected at 10 μl/g body weight. In the case of drugs that were difficult to dissolve, e.g. the hydrochlorides, a non-ionic, low toxicity detergent was included to emulsify the drug, making it suitable for injection. Two cages of mice were assigned to each control or experimental group and fed standard lab chow. In almost all cases, the mice were injected daily for a total of 10 doses.
# Four groups of mice (8 per group) were injected once a day for 10 d with 120 mg/kg of D-threo-PDMP and 60 or 180 mg/kg of Myrj 52 or Pluronic F68. No deaths occurred in these mice by 10 days and, at 60 days, the number of apparently cured mice was 2 and 3 for the two Myrj groups and 1 and 3 for the two Pluronic groups.
# [6] = test system: Ehrlich ascites cells; experiment: Growth of Ehrlich ascites cells in vivo (volume of packed cells); conditions: treatment begun 3 days after EATC inoculation, 5 injections, killed 1 day later; 100 mg/kg
# Procedure: A suspension of GlcCer was injected into one group of 10 mice inoculated 1 day earlier with EATC as before. Injectable suspensions of GlcCer and galactosylceramide (GalCer) were prepared by mechanical grinding in saline (10 mg/ml) and injected at a dosage of 100 mg/kg. In one experiment, the mice were killed 1 day after the last of eight daily injections and the ascites cells were flushed out of the abdomen with buffered saline and washed.
# Treatments were begun 3 days after EATC inoculation. Only 5 injections were given and the mice were killed 1 day later.
# [7] = 2 × 250 mg/kg/day, days 1-5, 1 × 150, days 6-10
smiles,measurement,setting,value
"CCCCCCCCCC(=O)N[C@H](CN1CCOCC1)[C@H](O)c1ccccc1 [D-threo-PDMP, 1-Phenyl-2-Decanoylamino-3-Morpholino-1-Propanol]",Median T/C ratio,"[1]; 1 × 100 mg/kg/day, days 1-10",191%
same,Number of cured mice at 60 days,"[1]; 1 × 100 mg/kg/day, days 1-10",4
same,Number of cured mice at 90 days,"[1]; 1 × 100 mg/kg/day, days 1-10",4
same,Surviving at 60 days (cured mice and mice bearing a solid tumor),"[1]; 1 × 100 mg/kg/day, days 1-10",7
same,Surviving at 90 days (cured mice and mice bearing a solid tumor),"[1]; 1 × 100 mg/kg/day, days 1-10, mice with solid tumors killed before 90 days",4
same,Median T/C ratio,"[1]; 1 × 150 mg/kg/day, days 1-10",319%
same,Number of cured mice at 60 days,"[1]; 1 × 150 mg/kg/day, days 1-10",3
same,Number of cured mice at 90 days,"[1]; 1 × 150 mg/kg/day, days 1-10",3
same,Surviving at 60 days (cured mice and mice bearing a solid tumor),"[1]; 1 × 150 mg/kg/day, days 1-10",7
same,Surviving at 90 days (cured mice and mice bearing a solid tumor),"[1]; 1 × 150 mg/kg/day, days 1-10",5
same,Median T/C ratio,"[1]; 2 × 100 mg/kg/day, days 1-5",238%
same,Number of cured mice at 60 days,"[1]; 2 × 100 mg/kg/day, days 1-5",3
same,Number of cured mice at 90 days,"[1]; 2 × 100 mg/kg/day, days 1-5",3
same,Surviving at 60 days (cured mice and mice bearing a solid tumor),"[1]; 2 × 100 mg/kg/day, days 1-5",5
same,Surviving at 90 days (cured mice and mice bearing a solid tumor),"[1]; 2 × 100 mg/kg/day, days 1-5, mice with solid tumors killed before 90 days",3
same,Median T/C ratio,[1]; [7],150%
same,Number of cured mice at 60 days,[1]; [7],3
same,Number of cured mice at 90 days,[1]; [7],3
same,Surviving at 60 days (cured mice and mice bearing a solid tumor),[1]; [7],5
same,Surviving at 90 days (cured mice and mice bearing a solid tumor),[1]; [7],5
same,Percentage surviving for 60 days,"[1]; dose response test, 75 mg/kg",10%
same,Percentage surviving for 60 days,"[1]; dose response test, 100 mg/kg",20%
same,Percentage surviving for 60 days,"[1]; dose response test, 125 mg/kg",50%
same,Time of death compared with controls,"[1]; dose response test, 25 or 50 mg/kg",died at about the same time as the controls
same,Mice still alive and healthy more than 5 months after inoculation,"[1]; dose response test, two most-heavily dosed groups",40%
same,Surviving at 10 days,[1]; 100 mg/kg/day,10/10
same,"Body weight change (mean, end of 10 days)",[1]; 150 mg/kg/day,-0.36 g
same,Surviving at 10 days,[1]; 150 mg/kg/day,10/10
same,"Body weight change (mean, end of 10 days)",[1]; 250 mg/kg/day,-3.49 g
same,Surviving at 10 days,[1]; 250 mg/kg/day,8/9
same,Mice completely cured,[1]; variety of regimens,About 30%
same,IC50,[2],20 µM
same,IC50,[3],5 µM
same,Survivors developing no EATC after challenge,"[4]; five survivors challenged 135 and 100 days after inoculation, greater than 5 months of observation",four of them developed no EATC
same,Effect of reinoculation with 2×10^6 EATC,"[4]; four mice surviving 63 days post-inoculation, observed greater than 7 months more",no effects of the reinoculation
same,Number of apparently cured mice at 60 days,"[5]; 120 mg/kg for 10 d with Myrj 52, first group (60 mg/kg)",2
same,Number of apparently cured mice at 60 days,"[5]; 120 mg/kg for 10 d with Myrj 52, second group (180 mg/kg)",3
same,Number of apparently cured mice at 60 days,"[5]; 120 mg/kg for 10 d with Pluronic F68, first group (60 mg/kg)",1
same,Number of apparently cured mice at 60 days,"[5]; 120 mg/kg for 10 d with Pluronic F68, second group (180 mg/kg)",3
same,Deaths by 10 days,"[5]; 120 mg/kg once a day for 10 d with 60 or 180 mg/kg of Myrj 52 or Pluronic F68, 8 per group",No deaths
same,Volume of packed cells,[6],1.68 ± 0.86 ml/mouse
same,"Volume of packed cells, % of controls",[6],62 % of controls

# From patent publication US5041441A, “Method of chemotherapy using 1-phenyl-2-decanoylamino-3-morpholino-1-propanol” (The Regents of the University of Michigan, priority 1988, dated 1991)
